By melting point is commonly meant the temperature, or range, at which the solid turns liquid. `O=[N+]([O-])c1ccc(Oc2cccc3ccccc23)nc1` yielded a melting point of 87.3 to 89.3 °C.
`O=C1NC(=O)C(CCCCc2ccc(O)cc2)O1` (centres undefined) returned a melting point of 151 to 152 °C.
The value for `CCOc1cc(CN2C(=O)c3ccccc3C2=O)c2c(c1)Oc1c(ccc(OCC)c1CO[Si](C)(C)C(C)(C)C)N2CC` was 158 to 159 °C; that for `O=C(C=Cc1ccc(CO)cc1)N1CCc2c([nH]c3ccccc23)C1c1ccc2c(c1)OCO2` (centres undefined) was 206 °C.
With `Cc1cc(C)c(/C=C2\C(=O)N(CN3CCCC3)c3ccccc32)[nH]1`, the melting point was in the range of 129 to 132 °C.
In the case of `O=S(=O)(c1ccccc1)N1CCC(Nc2nc(OCC(F)(F)F)nc(N3CCCC3)n2)CC1`, the melting point fell in the range of 212 to 213 °C.
In turn, `Cc1ccc(S(=O)(=O)OCC2Cc3c(Br)cccc3O2)cc1` (centres undefined) had a melting point of 90 to 91 °C.
Compound `N#Cc1ccc(CN2CCC(=O)C(C(c3ccc(F)cc3)c3ccc(F)cc3)C2)cc1` (centres undefined) gave a melting point of 118 to 120 °C.
The value for `CCC(=O)OCC=C(C)CCC=C(C)CCC=C(C)CCC=C(C)CCC=C(C)CCC=C(C)CCC=C(C)CCC=C(C)CCC=C(C)C` was 33 to 35 °C.
The value for `COc1cc2c(cc1OCCCN1CCC(c3[nH]cc4cc(F)ccc34)CC1)CCCC2=O` was 129 to 131 °C.
The value for `CCOc1nn(-c2ccccn2)cc1CCCOc1cc(CCC(=O)O)n(-c2ccccc2)n1` was 156 to 157 °C; that for `COc1ccc(COC(=O)CNC=S)cc1` was 107 to 108 °C.
For the compound `CCOC(=O)c1c(CN(CC)CC)nc2sc3c(c2c1-c1ccc(OC)c(OC)c1)CCN(C(=O)OCC)C3`, the melting point is 119 to 120 °C.
As to `COc1cccc2c1C13CCNC(C2)C1(O)CCC(=O)C3` (centres undefined), the melting point lay in the range of 137 to 139 °C.
Then `CCCCCCCCCc1cc2ccc(C(=O)O)cc2[nH]1`, with 166 to 169 °C; and `C[C@H](C(=O)O)n1ccn(-c2ccc(OCC(F)(F)C(F)F)cc2)c1=O`, with 149 to 151 °C.
With `Cc1cc(-c2cc(C(F)(F)F)n3cnc(-c4ccncc4)c3n2)ccc1C(F)(F)F`, the melting point is 225 °C.
Then `COCCNC(=O)c1cccc(-c2cccc3cc(Cc4cc(F)cc(F)c4)sc23)c1`, with 96 to 97 °C.
The compound `Cc1cc(C)c2ncc(NC(=O)Nc3cc(C(C)C)c(O)c(C(C)C)c3)c(-c3ccccc3Cl)c2c1` displayed a melting point of 194 to 196 °C.
The value for `O=C(Cc1ccccc1)N[C@@H]1C(=O)N2C[C@@H](O)CS[C@H]12` was 166 to 167 °C.
In turn, `CC(O)(C=Cc1ccc(S(=O)(=O)c2ccncc2)cc1)C(F)(F)F` (centres undefined) had a melting point of 168 to 171 °C.
The value for `COC1=CC(=O)CN(Cc2ccccc2)C1` was 113 to 115 °C; that for `c1ccc2c(c1)cc1n2CC2(CC1)CO2` (centres undefined) was 104 to 107 °C; that for `COc1cccc(C2=C(C#N)C(c3ccccc3[N+](=O)[O-])c3c[nH]nc3N2)c1` (centres undefined) was 220 °C.
Then `NC1CN(c2c(F)cc3c(=O)c(C(=O)O)cn(C4CC4)c3c2F)CC12OCCO2` (centres undefined), with 224 to 226 °C; and `CC(C)(C)N1CC2(CCNCC2)OC1=O`, with 108 to 111 °C; and `CCOc1ncc(S(=O)(=O)N2CCN(CC)CC2)cc1-c1nc2c(CC)n(CCOC)nc2c(=O)[nH]1`, with 158 to 160 °C.
Then `CCn1c(N)c(C(N)=O)c(=O)c2cnc(Nc3ccc(O)cc3)nc21`, with more than 260 °C.
Consider `CC(=O)OCCCCN(C)CCCN(C)C(=O)[C@@H]1CCCN1S(=O)(=O)c1ccc(Cl)c(COc2cccc3c(-n4ccnc4)cc(C)nc23)c1Cl`, for which the melting point came to 88 °C.
Then `O=C(CNCCO)Nc1ccccn1`, with 114 to 115 °C.
Then `Oc1cc2c(cc1CCCOc1ccc3ccccc3c1-c1nnn[nH]1)OC(CCc1ccccc1)C2` (centres undefined), with 121 to 123 °C; and `O=C(CCl)Nc1ccc(-c2nc3ccccc3s2)cc1I`, with 192 to 194 °C.
The value for `CC(O)(C1=CCN(CCCC(=O)c2ccc(F)cc2)CC1)c1ccc(F)cc1` (centres undefined) was 95 °C; that for `COc1ccc(/C=N/Nc2nccc(C(F)(F)F)n2)cc1OC1CCCC1` was 73 to 75 °C.
Compound `Cc1cccc(-c2nc3cccnn3c2-c2ccnc(NC(=O)NC(C)C)c2)c1` showed a melting point of 193 to 195 °C.
Then `COc1ccc(CCC(=O)O)cc1OCCCc1cn(-c2ccc(C(F)(F)F)cn2)nc1C(C)C`, with 93 to 94 °C.
Then `O=C1Nc2ccccc2C(c2ccc(Cl)c(Cl)c2)CC1Br` (centres undefined), with 183 to 188 °C; and `CC(N1CCN(c2ncn(Cc3ccc(C(F)(F)F)cc3)n2)CC1)C(O)(Cn1cncn1)c1ccc(F)cc1F` (centres undefined), with 69 to 72 °C.
Consider `OCC(CO)(c1ccccc1)c1ccccc1`, for which the melting point was in the range of 102 to 104 °C.
`CN(C)S(=O)(=O)Oc1cccc2c1S(=O)(=O)N=C2C1=C(O)C(C(C)(C)C)N(Cc2ccc(F)cc2)C1=O` (centres undefined) had a melting point of 116 to 126 °C.
The value for `Cc1c(-c2ccccc2)c(N2CC[C@](C)(N)C2)c2oc(C(=O)N(C)C)nc2c1C#N` was 202 to 204 °C; that for `CCn1c(-c2c(C)cc(C)cc2C)nc(-c2ccncc2)c1-c1ccc(C)cc1` was 137 to 140 °C; that for `COC(=O)c1cnc(N2CCN(Cc3ccccc3)CC2)nc1C` was 38 to 40 °C.
In the case of `O=c1ccn(-c2ccc(C(F)(F)F)cc2)nc1-c1ccnn1-c1ccccc1`, the melting point lay in the range of 237 to 238 °C.
Then `O=S(=O)(Nc1cccc(CCOCc2ccc(-c3ccc(Cl)c(Cl)c3)cc2F)c1)C(F)(F)F`, with 102 to 104 °C.
Then `CC(C)(CCCCOc1ccc(NC(=O)CCCn2ccnc2)cc1)C(=O)O`, with 150 °C.
Take `N#CC1CCCCC1n1nc(-c2c(-c3ccccc3)nn3ccccc23)ccc1=O` (centres undefined): the melting point was determined as 214 °C.
Then `N#CC1CCc2c(C(=O)O)cccc21` (centres undefined), with 206 to 208 °C; and `CNC(=S)n1nc(NC(C)=O)nc1N`, with more than 300 °C.
The value for `CCOC(=O)c1c(COc2nccn2C)nc2cc(OC)c(OC)cc2c1-c1ccc(OC)c(OC)c1` was 151 to 152 °C; that for `OCCN(CCO)Cc1nnc2n1-c1ccc(Cl)cc1C(c1ccccc1)=NC2` was 84 to 87 °C; that for `c1ccc(-c2c[nH]c3ccccc23)cc1` was 148 to 149 °C.
`N#CC1CN1C(=S)NC(=O)c1ccccc1` (centres undefined) displayed a melting point of 135 to 140 °C.
`CC(=O)N1CCN(CCCOc2ccc(N3CCN(c4ccc5nnc(C(F)(F)F)n5n4)CC3)cc2)CC1` gave a melting point of 162 °C.
The value for `CC(C)N1C(N)=NS(=O)(=O)NC1Oc1ccc([N+](=O)[O-])cc1` (centres undefined) was 132 to 136 °C.
The value for `FC(F)(F)c1ccc(/C=C/C=C/[C@H]2CC[C@H](SCc3ccc(Cl)cc3)CC2)cc1` was 142 to 144 °C; that for `CN(C)c1ccc(C=CC(=O)c2ccc3c(c2)CCCC3)cc1` was 134 to 135 °C.
Take `CC(C)(C)OC(=O)Nc1cc(N2CCOCC2)c(C#Cc2ccccc2)cc1[N+](=O)[O-]`: the melting point fell in the range of 190 to 191 °C.
Then `CCCCOC(=O)Cc1ccc(N2CCN(CCc3cc(C(C)(C)C)c(O)c(C(C)(C)C)c3)CC2)cc1`, with 103 to 105 °C.
Take `COc1cc(CN2CCN(c3ccccc3F)CC2)ccc1OC(=O)N(C)C`: the melting point is 130 to 133 °C.
Then `CNC(=O)c1cccc(NC(=O)Nc2ccccc2)c1`, with 209 to 210 °C; and `CC(=O)N(C)c1ccc(-c2cc3ccc(Br)cn3c2)cc1C`, with 197 to 198 °C; and `Cc1sc(N)c(C(=O)c2ccc(Cl)cc2)c1CN1CCN(c2cccc(F)c2)CC1`, with 140 to 141 °C.
The value for `Cc1cc(F)ccc1CCC(=O)O` was 112 to 113 °C; that for `N#Cc1ccc(-c2cn(-c3ccc(C#N)cc3)c(SCCO)n2)cc1` was more than 300 °C; that for `CCCCOc1nc(N)c2[nH]c(=O)n(CCN(C)Cc3cccc(CC(=O)O)c3)c2n1` was 164 to 166 °C.
`Cc1cc(N2N=C(c3ccc([N+](=O)[O-])cc3)c3cc4c(cc3CC2C)OCO4)on1` (centres undefined) registered a melting point of 179 to 182 °C.
In the case of `Cc1cc(-c2ccccc2)n2nc(N3CCN(Cc4ccccc4)CC3)c(C#N)c2n1`, the melting point fell in the range of 160 to 164 °C.
For the compound `COCCOCCOc1ccc(C2=N[C@@](C)(C(=O)O)CS2)c(O)c1`, the melting point was in the range of 82 to 83 °C.
Compound `Cc1cccc([N+](=O)[O-])c1CC(CC(=O)O)C(=O)O` (centres undefined) returned a melting point of 172 to 176 °C.
For the compound `O=C(O)CCc1cn(Cc2ccc(OCc3ccc4ccccc4n3)cc2)nc1-c1ccccc1`, the melting point was in the range of 147 to 148 °C.
Then `COC(=O)C1(C)CN(C(=O)Nc2ccc(Cl)cc2)N=C1c1ccc(Cl)cc1` (centres undefined), with 122 °C.
In turn, `O=C(NC1CCN(CCc2ccccc2F)C1)C12CC3CC(CC(C3)C1)C2` (centres undefined) gave a melting point of 106 to 108 °C.
The compound `CC(C)CCNC(=O)c1ccccc1-c1ccccc1CNC(=O)Nc1ccccc1` yielded a melting point of 194 °C.
With `O=C(O)c1csnc1-c1cc(C(F)(F)F)cc(C(F)(F)F)c1`, the melting point fell in the range of 151 to 154 °C.
Then `CNCC1(C)Cc2cc(NC)c3c(c2C(c2ccccc2)=N1)CC(C)(C)O3` (centres undefined), with 126 to 128 °C; and `CC(C)c1nc2c(nc1C(C)C)-c1c(c(-c3ccc(C(=O)O)cc3)cn1Cc1cccnc1)CC2`, with 100 to 102 °C.
Take `Cc1ccc(N2C(=O)C(O)=C(C(=O)c3ccc(OC(F)(F)F)cc3)C2c2ccc(Cn3cnnn3)cc2)nn1` (centres undefined): the melting point was more than 300 °C.
Then `COc1cc(C(=O)Cc2ccc(O)cc2)c(O)cc1O`, with 157 to 159 °C.
Consider `O=c1c(N2CCNCC2)nccn1CCOc1cccc([N+](=O)[O-])c1`, for which the melting point is 171 °C.
The compound `COCCOc1ccc(CCCNS(=O)(=O)CCCc2ccccc2)c(Oc2ncc(C(F)(F)F)cc2Cl)c1` had a melting point of 102 °C.
The value for `COC(=O)C=C1CN=C(c2ccccc2)c2cc(Cl)ccc2N1` was 167 to 170 °C; that for `c1ccc(-c2nnsc2-c2ccc3c(c2)OCO3)cc1` was 107 to 109 °C.
Then `COc1ccc(C(=O)NCc2ccc(C(=O)O)cc2)cc1C12CC3CC(CC(C3)C1)C2`, with 286 to 287 °C.

Source of the values: a melting point compilation (Tetko et al.; mined from patent text by program, amines drawn as free bases though some values may be those of a salt).
